Experimental findings from US6703388B2, “Nitrogen-containing tricyclic compounds and drugs containing the same” (Eisai Co., Ltd., priority 1996, dated 2004) are described below.

Where two headings read alike, the source gives them in different places.

In test [1] the test system is RBL-2H3 cells. Put plainly: Inhibition of serotonin liberation from IgE-sensitized RBL-2H3 cells after antigen stimulation. The test is classed as cell-based, rat. The following applies: Rattus norvegicus. An excerpt: IgE-sensitized RBL-2H3 cells (i.e., a cell line originating in rat cells) release and produce not only histamine and serotonin but also cytokines such as TNF α and prostaglandins which are inflammatory mediators after stimulation with IgE sepecific antibody. In this experimental system, inhibitory effects on various mediators release were examined by using serotonin as an indication.
The cells were beforehand labeled with [^3H]-labeled serotonin and, at the same time, sensitized with the IgE antibody. After incubating with the compounds of the present invention, the cells were stimulated with the specific antigen. Then the inhibitory activity of each compound was calculated from the amount of the [^3H]-labeled serotonin thus liberated into the medium and the amount of [^3H]-labeled serotonin liberated when no compound of the present invention was added.

Test [2] concerns human basophils. The test can be described thus: Inhibition of mediator (histamine, peptide leukotriene) liberation from human basophils stimulated with mite antigen. In kind it is cell-based. The following applies: enzyme immunoassay. Here is the method: 6 ml of 6% dextran (for separating leukocytes, having a high molecular weight) was added to 20 ml of heparinized blood. After stirring well, the resulting mixture was allowed to stand at 37° C. for 30 min and thus erythrocytes were precipitated. The upper layer was taken up and phosphate buffered saline (D-PBS) was added thereto followed by centrifugation at 185 g for 8 minutes to give a crude leukocyte fraction. These cells were subjected to hypotonic hematolysis and then suspended in D-PBS(+) containing 0.1%-BSA. The resulting suspension was used in the subsequent experiment as the leukocyte fraction containing basophils. 0.4 ml of this cell suspension was preliminarily heated to 37° C. for 5 min and then 0.05 ml of a specimen solution was added thereto followed by a pretreatment at 37° C. for 15 min. Next, 0.05 ml of a mite antigen solution was added thereto to induce an antigen-antibody reaction. After 10 min, the reaction was ceased by ice-cooling. Then the reaction mixture was centrifuged at 185 g for 10 min and histamine and peptide leukotrienes in the resulting supernatant were determined by using enzyme immunoassay kits. From the results of the assay, the activities of the acridone derivatives of inhibiting the liberation of histamine and peptide leukotriene were determined.

The mark [3] stands for this setting: [3H]-serotonin release, IgE-sensitized RBL-2H3 cells, antigen stimulation, read-out: IC50 (μM) in serotonin liberation from RBL-2H3 cells.
Where [4] appears, read: RBL-2H3, read-out: IC50 (μM) in serotonin liberation from RBL-2H3 cells.
Setting [5] is: histamine, read-out: IC50 (μM) in mediator liberation from human basophils: histamine.
[6] abbreviates: peptide leukotriene, read-out: IC50 (μM) in mediator liberation from human basophils: leukotriene.

With `Cc1ccc2c(c1C)N(CCCNCc1ncco1)c1ccccc1[S+]2[O-]` (stereo not shown) [Example 72], the IC50 in test [1] (setting [3]) was determined as 8 µM.

With `Cc1ccc2c(=NOCc3ccccn3)c3ccccc3n(CCCNCc3ccccc3)c2c1C` [Example 240], the IC50 in test [1] (setting [3]) stood at 5 µM.

As to `Cc1ccc2c(c1C)N(Cc1cccc(CNCc3ncc[nH]3)n1)c1ccccc1S2` [Example 7], in test [1] (setting [3]), the IC50 was found to be 8 µM.

As to `Cc1ccc2c(c1C)N(CCN1CCC(O)(c3ccccc3)CC1)c1ccccc1S2(=O)=O` [Example 199], the IC50 in test [1] (setting [4]) turned out to be 10 µM.

Regarding `Cc1ccc2c(c1C)N(CCCn1cnc(N)n1)c1ccccc1[S+]2[O-]` (stereo not shown) [Example 119], the IC50 in test [1] (setting [3]) is 6 µM.

Regarding `Cc1ccc2c(c1C)N(CCCNCc1ccc(F)cc1F)c1cc(CCO)ccc1[S+]2[O-]` (stereo not shown) [Example 95], in test [1] (setting [3]), the IC50 was determined as 3 µM.

In the case of `Cc1ccc2c(c1C)N(CCCNCC#N)c1ccccc1[S+]2[O-]` (stereo not shown) [Example 130], in test [1] (setting [3]), the IC50 was found to be 3 µM.

For `Cc1ccc2c(c1C)N(CCCN)c1cc(Br)ccc1S2(=O)=O` [Example 197], the IC50 in test [1] (setting [3]) turned out to be 8 µM.

As for `Cc1ccc2c(=NOCCC(=O)O)c3ccccc3n(CCCNCc3ccccc3O)c2c1C` [Example 247], the IC50 in test [1] (setting [3]) is 10 µM.

Turning to `Cc1ccc2c(c1C)N(CCCN)c1ccccc1S2` [Example 1, 1,2-Dimethyl-10-(3-aminopropyl)phenothiazine], in test [1] (setting [3]), the IC50 came to 5 µM.

Regarding `Cc1ccc2c(c1C)N(Cc1ccc(CN3CCC(C(=O)O)CC3)cc1)c1ccccc1[S+]2[O-]` (stereo not shown) [Example 121], in test [1] (setting [3]), the IC50 worked out at 1 µM.

Regarding `Cc1ccc2c(c1C)N(CCCNC(C(=O)O)c1ccccc1)c1ccccc1[S+]2[O-]` (stereo not shown) [Example 133], the IC50 in test [1] (setting [3]) was 1 µM.

For the molecule `Cc1ccc2c(c1C)N(CCCNCc1cccc(C(=O)O)c1O)c1ccccc1[S+]2[O-]` (stereo not shown) [Example 31], the IC50 in test [1] (setting [4]) came out at 0.5 µM.

As for `Cc1ccc2c(c1C)N(CCNCc1ccc(Cl)c(O)c1Cl)c1ccccc1[S+]2[O-]` (stereo not shown) [Example 153], the IC50 in test [1] (setting [3]) was 6 µM.

Turning to `Cc1ccc2c(c1C)N(CCCN1CCC(O)CC1)c1ccccc1[S+]2[O-]` (stereo not shown) [Example 106], the IC50 in test [1] (setting [3]) worked out at 2 µM.

With `Cc1ccc2c(c1C)N(CCCNc1ccccc1O)c1ccccc1[S+]2[O-]` (stereo not shown) [Example 116], the IC50 in test [1] (setting [3]) was 10 µM.

For `COc1ccsc1CNCCCN1c2ccccc2[S+]([O-])c2c(C)cc(C)c(C)c21` (stereo not shown) [Example 101], in test [1] (setting [3]), the IC50 was 5 µM.

For the molecule `Cc1ccc2c(c1C)N(CCCN(CC(=O)O)Cc1ccccc1O)c1ccccc1[S+]2[O-]` (stereo not shown) [Example 135], the IC50 in test [1] (setting [3]) turned out to be 2 µM.

For `Cc1ccc2c(c1C)N(CCCNCc1cccc(-c3nnn[nH]3)c1)c1ccccc1[S+]2[O-]` (stereo not shown) [Example 57], the IC50 in test [1] (setting [3]) was 2 µM.

Take `Cc1ccc2c(c1C)N(CCCNCc1ccccc1)c1ccc(C#N)cc1[S+]2[O-]` (stereo not shown) [Example 88]: in test [1] (setting [3]), the IC50 came out at 1 µM.

As to `Cc1ccc2c(=NOCCc3ccccn3)c3ccccc3n(CCCNCc3ccccc3)c2c1C` [Example 241], the IC50 in test [1] (setting [3]) was found to be 4 µM.

Regarding `Cc1ccc2c(c1C)N(CCCN(C)Cc1ccccc1O)c1cc(Cl)ccc1[S+]2[O-]` (stereo not shown) [Example 186], the IC50 in test [1] (setting [3]) came to 10 µM.

With `Cc1ccc2c(=NOCCC(=O)O)c3ccccc3n(CCCN(C)Cc3ccccc3)c2c1C` [Example 254], the IC50 in test [1] (setting [3]) is 12 µM.

Regarding `Cc1ccc2c(=NOCC(=O)O)c3ccccc3n(CCCNCc3ccccc3)c2c1C` [Example 234], the IC50 in test [1] (setting [3]) was less than 3 µM.

With `Cc1ccc2c(c1C)N(CCCN(C)Cc1cc(Cl)cc(Cl)c1O)c1ccccc1[S+]2[O-]` (stereo not shown) [Example 172], the IC50 in test [1] (setting [3]) turned out to be 3 µM.

Turning to `Cc1ccc2c(c1C)N(CCCNCc1nccs1)c1ccccc1[S+]2[O-]` (stereo not shown) [Example 120], in test [1] (setting [3]), the IC50 is 3 µM.

As to `Cc1ccc2c(c1C)N(CCCN)c1ccccc1C(=O)N2C` [Example 258], the IC50 in test [1] (setting [3]) was found to be 6 µM.

For the molecule `Cc1ccc2c(c1C)N(CCCN(C)Cc1cccc(Cl)c1O)c1ccccc1[S+]2[O-]` (stereo not shown) [Example 167], the values for the IC50 in test [2] (setting [5]) and in test [2] (setting [6]) were 10 µM and 3 µM, respectively.

`Cc1ccc2c(c1C)N(CCCN(C)Cc1ccccc1O)c1cc(C(F)(F)F)ccc1[S+]2[O-]` (stereo not shown) [Example 187]: the IC50 in test [2] (setting [5]) is 10 to 30 µM; in test [2] (setting [6]), 3 to 10 µM.
